The target of one assay is T1, Cyclooxygenase (Rattus norvegicus, UniProt P35355+Q63921).
T1 sequence (P35355 whole entry): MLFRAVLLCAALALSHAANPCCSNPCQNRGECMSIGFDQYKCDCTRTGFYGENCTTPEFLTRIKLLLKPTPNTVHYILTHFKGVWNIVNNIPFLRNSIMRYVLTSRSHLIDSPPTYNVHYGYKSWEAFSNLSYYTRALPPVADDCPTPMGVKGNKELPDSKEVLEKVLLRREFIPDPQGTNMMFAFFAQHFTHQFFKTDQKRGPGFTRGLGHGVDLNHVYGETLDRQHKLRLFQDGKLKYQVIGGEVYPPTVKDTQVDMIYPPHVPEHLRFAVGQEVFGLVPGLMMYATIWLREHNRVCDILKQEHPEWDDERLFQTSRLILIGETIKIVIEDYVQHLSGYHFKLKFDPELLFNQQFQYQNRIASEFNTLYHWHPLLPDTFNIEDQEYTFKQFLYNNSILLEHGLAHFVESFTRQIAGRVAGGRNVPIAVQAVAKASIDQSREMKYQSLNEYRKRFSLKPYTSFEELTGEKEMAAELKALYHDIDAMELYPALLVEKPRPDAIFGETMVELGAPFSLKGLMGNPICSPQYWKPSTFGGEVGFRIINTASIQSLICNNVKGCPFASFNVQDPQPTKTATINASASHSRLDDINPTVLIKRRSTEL
T1 sequence (Q63921 whole entry): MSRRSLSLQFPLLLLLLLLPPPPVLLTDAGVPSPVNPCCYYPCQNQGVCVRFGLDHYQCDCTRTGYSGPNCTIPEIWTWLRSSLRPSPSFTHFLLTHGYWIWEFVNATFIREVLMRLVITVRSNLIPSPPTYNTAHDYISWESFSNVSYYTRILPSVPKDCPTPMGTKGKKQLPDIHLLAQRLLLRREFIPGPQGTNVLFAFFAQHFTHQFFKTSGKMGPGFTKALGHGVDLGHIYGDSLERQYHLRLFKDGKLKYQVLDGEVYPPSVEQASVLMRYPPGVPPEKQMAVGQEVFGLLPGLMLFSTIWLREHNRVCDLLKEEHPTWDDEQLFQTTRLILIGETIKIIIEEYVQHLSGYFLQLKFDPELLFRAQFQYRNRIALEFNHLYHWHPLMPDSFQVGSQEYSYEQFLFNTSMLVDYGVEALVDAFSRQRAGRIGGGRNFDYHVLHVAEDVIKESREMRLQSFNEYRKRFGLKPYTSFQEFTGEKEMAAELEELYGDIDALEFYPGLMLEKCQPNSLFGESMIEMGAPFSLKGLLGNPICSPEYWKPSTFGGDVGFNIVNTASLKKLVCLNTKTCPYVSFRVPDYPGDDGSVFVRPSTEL
As to the kind of experiment: In vitro inhibitory activity against Cyclooxygenase was determined. The assay is classed as protein assay.

Assay [1] has as its target T2, Polyunsaturated fatty acid 5-lipoxygenase (Rattus norvegicus, UniProt P12527).
T2 sequence (P12527 whole entry): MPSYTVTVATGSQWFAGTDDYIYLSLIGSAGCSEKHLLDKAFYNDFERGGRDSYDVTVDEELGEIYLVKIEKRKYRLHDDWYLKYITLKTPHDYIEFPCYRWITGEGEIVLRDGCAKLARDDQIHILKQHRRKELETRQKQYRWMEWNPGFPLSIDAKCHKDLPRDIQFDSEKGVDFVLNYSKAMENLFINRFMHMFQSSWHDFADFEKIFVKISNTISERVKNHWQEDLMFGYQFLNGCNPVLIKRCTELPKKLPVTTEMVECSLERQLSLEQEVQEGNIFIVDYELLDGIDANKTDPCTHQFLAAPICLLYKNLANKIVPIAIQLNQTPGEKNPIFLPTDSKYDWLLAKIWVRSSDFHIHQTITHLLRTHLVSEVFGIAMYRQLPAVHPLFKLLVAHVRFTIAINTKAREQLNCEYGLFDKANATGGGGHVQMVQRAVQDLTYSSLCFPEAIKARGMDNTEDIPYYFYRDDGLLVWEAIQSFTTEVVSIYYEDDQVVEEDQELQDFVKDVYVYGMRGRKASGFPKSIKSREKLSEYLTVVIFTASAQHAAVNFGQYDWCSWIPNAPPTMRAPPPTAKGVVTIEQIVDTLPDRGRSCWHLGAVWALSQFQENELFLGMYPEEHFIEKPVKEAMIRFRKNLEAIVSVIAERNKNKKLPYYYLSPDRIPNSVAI
Description: In vitro inhibitory activity against 5-lipoxygenase was determined.

The target in assay [2] is T3, Polyunsaturated fatty acid 5-lipoxygenase (Rattus norvegicus) (UniProt P12527).
T3 sequence (whole entry): T2 sequence (P12527 whole entry)
Description: In vitro inhibitory activity against 5-lipoxygenase was determined at 16 uM.

Assay [3] addresses Cyclooxygenase (Rattus norvegicus) (UniProt P35355+Q63921). Description: In vitro inhibitory activity against Cyclooxygenase was determined at 16 uM. The format is protein assay.

For eight molecules, IC50 and inhibition results are on record in ChEMBL document CHEMBL1126333, “Conversion of NSAIDS into balanced dual inhibitors of cyclooxygenase and 5-lipoxygenase” (Bioorg Med Chem Lett, 1992).

Each structure is given as a SMILES string.

Turning to `FC(F)(F)c1cccc(Nc2ncccc2-c2nnc(S)o2)c1`, the IC50 against Cyclooxygenase is 190 nM; in assay [1] it was 990 nM. As for `Cc1ccc(Cl)c(Nc2ccccc2-c2nnc(O)o2)c1Cl`, the inhibition in assay [2] and in assay [3] was < 40% each time. The molecule `Cc1ccc(Cl)c(Nc2ccccc2-c2nnc(S)o2)c1Cl` registered an IC50 against Cyclooxygenase of 700 nM. Consider `FC(F)(F)c1cccc(Nc2ccccc2-c2n[nH]c(=S)s2)c1`, for which, at Cyclooxygenase, the half-maximal inhibitory concentration (IC50) amounted to 850 nM. In turn, `FC(F)(F)c1cccc(Nc2ccccc2-c2n[nH]c(=S)o2)c1` gave an IC50 on Cyclooxygenase of 270 nM. Turning to `Cc1cccc(Nc2ccccc2-c2nnc(O)o2)c1C`, the inhibition in assay [2] and in assay [3] was < 40% in each case. `Cc1ccc(Cl)c(Nc2ccccc2-c2nnc(S)s2)c1Cl` gave an IC50 on Cyclooxygenase of 1750 nM. In the case of `Oc1nnc(-c2ccccc2Nc2cccc(C(F)(F)F)c2)s1`, the inhibition in assay [2] is 100%; in assay [3], < 40%.
